# Tests used:
# [1] = target: T1, full-length HAQ STING (Homo sapiens, UniProt Q86WV6, G230A/H232R/R293Q/R71H); assay: 3H-cGAMP filtration binding assay (HAQ STING); conditions: competition with tritiated cGAMP, HAQ STING membrane
# T1 construct: AviTag (after GG linker) (C); HRV3C cleavage site (after GS linker) (C); HIS8 (C); made in house; host or cells: Trichoplusia ni (Hi-Five) insect cells infected with baculovirus (virus generated and amplified in Sf21 cells); used as a washed membrane preparation
# In short: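 Hi-Five (T. ni) membranes overexpressing the STING variant (2.2 ug/ml working) preincubated with compound 60 min at RT in PBS, then [3H]cGAMP (8 nM working stock) added for 60 min at RT. Bound radioactivity captured on GF/B filters and counted by scintillation; EC50 from 4-parameter fit of control-normalized activity.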
# [2] = target: T2, full-length WT STING (Homo sapiens, UniProt Q86WV6, H232R); assay: 3H-cGAMP filtration binding assay (WT STING); conditions: for inhibition at 20 µM: at 20,000 nM compound; for EC50: competition with tritiated cGAMP, WT STING membrane
# T2 construct: AviTag (after gg linker) (C); HRV3C cleavage site (after gs linker) (C); HIS8 (C); made in house; host or cells: Trichoplusia ni (Hi-Five) insect cells infected with baculovirus (virus generated and amplified in Sf21 cells); used as a washed membrane preparation
# In short: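 Competitive filtration binding of [3H]cGAMP (16 nM working stock) to T. ni membranes overexpressing full-length WT human STING, 60 min at RT in PBS. Bound radioactivity counted after GF/B filtration; 10-point 1:3 titration, EC50 from 4-parameter fit after control normalisation.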
# [3] = test system: secretion of interferon-beta from THP1 cells; assay: IFN-β secretion in THP1 cell culture (5 h); assay type: cell-based; conditions: Homo sapiens, THP-1, 5 h, 30 uM cGAMP = 100%; for activation at 30 µM: compound at 30 μM, read-out: % Effect at 30 μM relative to 2′3′-cGAMP; for activation at 3 µM: compound at 3 uM, read-out: % Effect relative to 2′3′-cGAMP (@ 3 uM)
# In short: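 Thawed THP1 cells (0.8×10^6/mL, RPMI with 0.5% FBS) exposed to compounds 1.5–30000 nM (0.3% DMSO) for 5 h at 37 °C. Supernatant IFN-β quantified by AlphaLISA. Percent effect normalised to 30 uM cGAMP and DMSO controls; EC50 from 4-parameter fit.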
# T2 sequence (Q86WV6 with tags, fused parts or gaps H232R): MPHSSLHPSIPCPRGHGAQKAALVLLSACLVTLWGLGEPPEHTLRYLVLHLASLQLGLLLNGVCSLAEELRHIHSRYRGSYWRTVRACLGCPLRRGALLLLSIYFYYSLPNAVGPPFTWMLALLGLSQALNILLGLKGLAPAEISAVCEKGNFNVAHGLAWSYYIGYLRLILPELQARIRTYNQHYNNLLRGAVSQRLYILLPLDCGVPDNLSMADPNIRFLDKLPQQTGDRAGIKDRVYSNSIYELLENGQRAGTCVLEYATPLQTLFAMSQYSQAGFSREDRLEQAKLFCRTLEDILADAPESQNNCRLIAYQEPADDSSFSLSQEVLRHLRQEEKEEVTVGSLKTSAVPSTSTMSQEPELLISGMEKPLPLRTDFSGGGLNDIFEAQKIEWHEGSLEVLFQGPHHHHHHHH
# T1 sequence (Q86WV6 with tags, fused parts or gaps R71H/G230A/H232R/R293Q): as the sequence (Q86WV6 with tags, fused parts or gaps H232R) above, with R71H, G230A, R293Q counted along it
Structure (SMILES),EC50 [1],inhibition at 20 µM [2],activation at 30 µM [3],activation at 3 µM [3],EC50 [2]
"COc1cc2sc(C(=O)C[C@H](C)C(=O)O)cc2cc1OCCCCCCOc1cc2cc(C(=O)C[C@H](C)C(=O)O)sc2cc1OC [Example 110, (2S,2′S)-4,4′-(5,5′-(hexane-1,6-diylbis(oxy))bis(6-methoxybenzo[b]thiophene-5,2-diyl))bis(2-methyl-4-oxobutanoic acid)]",18600 nM,15%,6%,,
"COc1cc2sc(C(=O)C[C@H](C)C(=O)O)cc2cc1OCCCCCCOc1c(OC)cc2sc(C(=O)C[C@H](C)C(=O)O)cc2c1F [Example 111, (S)-4-(5-((6-((2-((S)-3-carboxybutanoyl)-4-fluoro-6-methoxybenzo[b]thiophen-5-yl)oxy)hexyl)oxy)-6-methoxybenzo[b]thiophen-2-yl)-2-methyl-4-oxobutanoic acid]",861 nM,50%,,45%,
"COc1cc2cc(C(=O)C[C@H](C)C(=O)O)sc2cc1OCCCCCCOc1cc2sc(C(=O)C[C@H](C)C(=O)O)cc2cc1OC [Example 112, (2S,2′S)-4,4′-(6,6′-(hexane-1,6-diylbis(oxy))bis(5-methoxybenzo[b]thiophene-6,2-diyl))bis(2-methyl-4-oxobutanoic acid)]",15500 nM,11%,23%,,
"COc1cc2sc(C(=O)C[C@H](C)C(=O)O)cc2cc1CCCOc1c(OC)cc2sc(C(=O)[C@@H]3CCC3C(=O)O)cc2c1F (stereo partly drawn) [Example 113, trans-2-(5-(3-(2-((S)-3-carboxybutanoyl)-6-methoxybenzo[b]thiophen-5-yl)propoxy)-4-fluoro-6-methoxybenzo[b]thiophene-2-carbonyl)cyclobutane carboxylic acid]",2 nM,,93%,,23 nM
"COc1cc2sc(C(=O)C[C@H](C)C(=O)O)cc2c(F)c1CCCOc1c(OC)cc2sc(CCC(C)(C)C(=O)O)cc2c1F [Example 114, (S)-4-(5-(3-((2-(3-carboxy-3-methylbutyl)-4-fluoro-6-methoxybenzo[b]thiophen-5-yl)oxy)propyl)-4-fluoro-6-methoxybenzo[b]thiophen-2-yl)-2-methyl-4-oxobutanoic acid]",21 nM,,57%,,264 nM
"COc1cc2sc(CC[C@H](C)C(=O)O)cc2c(F)c1OCCCOc1c(OC)cc2sc(CC[C@H](C)C(=O)O)cc2c1F [Example 116, (2S,2′S)-4,4′-(5,5′-(propane-1,3-diylbis(oxy))bis(4-fluoro-6-methoxybenzo[b]thiophene-5,2-diyl))bis(2-methylbutanoic acid)]",623 nM,,8%,,4240 nM
"COc1cc2sc(C(=O)CCC(=O)O)cc2c(F)c1OCCCCCOc1c(OC)cc2sc(C(=O)CCC(=O)O)cc2c1F [Example 117, 4,4′-(5,5′-(pentane-1,5-diylbis(oxy))bis(4-fluoro-6-methoxybenzo[b]thiophene-5,2-diyl))bis(4-oxobutanoic acid)]",340 nM,,123%,,2640 nM
COc1cc2sc(C(=O)CCC(=O)O)cc2c(F)c1OCCCCCOc1c(OC)cc2sc(C(=O)C[C@H](C)C(=O)O)cc2c1F [Example 118],60 nM,,117%,,5000 nM
"COc1cc2sc(C(=O)C[C@H](C)C(=O)O)cc2c(F)c1OCCCCCOc1c(OC)cc2sc(C(=O)C[C@H](C)C(=O)O)cc2c1F [Example 120, (2S,2′S)-4,4′-(5,5′-(pentane-1,5-diylbis(oxy))bis(4-fluoro-6-methoxybenzo[b]thiophene-5,2-diyl))bis(2-methyl-4-oxobutanoic acid)]",38 nM,,,45%,698 nM
"COc1cc2sc(C(=O)C[C@H](C)C(=O)O)cc2c(F)c1OCCCCCOc1c(OC)cc2sc(C(=O)[C@@H]3CC[C@H]3C(=O)O)cc2c1F [Example 121, trans-2-(5-((5-((2-((S)-3-carboxybutanoyl)-4-fluoro-6-methoxybenzo[b]thiophen-5-yl)oxy)pentyl)oxy)-4-fluoro-6-methoxybenzo[b]thiophene-2-carbonyl)cyclobutane carboxylic acid]",1550 nM,43%,26%,,
"COc1cc2sc(C(=O)C[C@H](C)C(=O)O)cc2c(F)c1OCCCOc1c(OC)cc2sc(C(=O)C[C@H](C)C(=O)O)cc2c1Cl [Example 122, (S)-4-(5-(3-((2-((S)-3-carboxybutanoyl)-4-chloro-6-methoxybenzo[b]thiophen-5-yl)oxy)propoxy)-4-fluoro-6-methoxybenzo[b]thiophen-2-yl)-2-methyl-4-oxobutanoic acid]",1 nM,,79%,,1 nM
"COc1cc2sc(C(=O)C[C@H](C)C(=O)O)cc2c(F)c1OCCCOc1c(OC)cc2sc(C(=O)C[C@H](C)C(=O)O)cc2c1Br [Example 123, (S)-4-(5-(3-((4-bromo-2-((S)-3-carboxybutanoyl)-6-methoxybenzo[b]thiophen-5-yl)oxy)propoxy)-4-fluoro-6-methoxybenzo[b]thiophen-2-yl)-2-methyl-4-oxobutanoic acid]",1 nM,,105%,,2 nM
"COc1cc2sc(CC[C@H](C)C(=O)O)cc2c(F)c1OCCCCOc1c(OC)cc2sc(C(=O)C[C@H](C)C(=O)O)cc2c1F [Example 124, (S)-4-(5-(4-((2-((S)-3-carboxybutyl)-4-fluoro-6-methoxybenzo[b]thiophen-5-yl)oxy)butoxy)-4-fluoro-6-methoxybenzo[b]thiophen-2-yl)-2-methyl-4-oxobutanoic acid]",263 nM,,,45%,3060 nM
"COc1cc2cc(C(=O)CCC(=O)O)sc2cc1OCCCOc1c(OC)cc2sc(C(=O)CCC(=O)O)cc2c1F [Example 125, 4-(6-(3-((2-(3-carboxypropanoyl)-4-fluoro-6-methoxybenzo[b]thiophen-5-yl)oxy)propoxy)-5-methoxybenzo[b]thiophen-2-yl)-4-oxobutanoic acid]",1 nM,,156%,,5 nM
"COc1cc2sc(C(=O)CCC(=O)O)cc2cc1OCCCOc1cc2sc(C(=O)CCC(=O)O)cc2cc1OC [Example 126, 4-(5-(3-((2-(3-carboxypropanoyl)-5-methoxybenzo[b]thiophen-6-yl)oxy)propoxy)-6-methoxybenzo[b]thiophen-2-yl)-4-oxobutanoic acid]",2 nM,,91%,,19 nM
"COc1cc2cc(C(=O)CCC(=O)O)sc2cc1OCCCOc1cc2sc(C(=O)CCC(=O)O)cc2cc1OC [Example 127, 4,4′-(6,6′-(propane-1,3-diylbis(oxy))bis(5-methoxybenzo[b]thiophene-6,2-diyl))bis(4-oxobutanoic acid)]",16 nM,,120%,,270 nM
"COc1cc2sc(C(=O)CCC(=O)O)cc2cc1CCCOc1cc2sc(C(=O)CCC(=O)O)cc2cc1OC [Example 128, 4-(5-(3-((2-(3-carboxypropanoyl)-5-methoxybenzo[b]thiophen-6-yl)oxy)propyl)-6-methoxybenzo[b]thiophen-2-yl)-4-oxobutanoic acid]",1080 nM,,83%,,6310 nM
"COc1cc2cc(C(=O)CCC(=O)O)sc2cc1OCCCc1cc2cc(C(=O)CCC(=O)O)sc2cc1C [Example 129, 4-(5-(3-((2-(3-carboxypropanoyl)-5-methoxybenzo[b]thiophen-6-yl)oxy)propyl)-6-methylbenzo[b]thiophen-2-yl)-4-oxobutanoic acid]",3500 nM,,50%,,17100 nM
"COc1cc2sc(C(=O)C[C@H](C)C(=O)O)cc2c(F)c1OCCCCOc1c(OC)cc2sc(C(=O)C[C@H](C)C(=O)O)cc2c1Cl [Example 130, (S)-4-(5-(4-((2-((S)-3-carboxybutanoyl)-4-chloro-6-methoxybenzo[b]thiophen-5-yl)oxy)butoxy)-4-fluoro-6-methoxybenzo[b]thiophen-2-yl)-2-methyl-4-oxobutanoic acid]",3 nM,,61%,,25 nM
"COc1cc2sc(C(=O)C[C@H](C)C(=O)O)cc2c(F)c1OCCCCOc1c(OC)cc2sc(C(=O)C[C@H](C)C(=O)O)cc2c1Br [Example 131, (S)-4-(5-(4-((4-bromo-2-((S)-3-carboxybutanoyl)-6-methoxybenzo[b]thiophen-5-yl)oxy)butoxy)-4-fluoro-6-methoxybenzo[b]thiophen-2-yl)-2-methyl-4-oxobutanoic acid]",25 nM,,,38%,242 nM

# Source: US10793557B2, “Sting agonist compounds” (Merck Sharp & Dohme Corp., priority 2018, dated 2020)
